According to patent US12723063B2, “GIPR-agonist compounds” (Eli Lilly and Company, priority 2019, dated 2026):
*1 amine or outer side, *2 acyl side, *3 side chain or, on linkers, in order; H or OH if unused. Where a SMILES comes first, the peptide text is derived from it. Side-chain parts run from the residue outwards. [ ]: non-standard residue; d: D form. The star is where a group is joined. C20 diacid = O=C(O)CCCCCCCCCCCCCCCCCCC(=O)*; γGlu = O=C(O)[C@H](CCC(=O)[*:2])N[*:1]; αMeL = CC(C)C[C@](C)(N)C(=O)O; AEEA = NCCOCCOCC(=O)O; Aib = CC(C)(N)C(=O)O

Assays:
[1] = target: T1, human glucagon receptor (GcgR) (Homo sapiens, UniProt P47871); assay: cAMP functional assay (HTRF) in HEK293 cells in presence of 0.1% casein; format: cell-based; settings: HEK293 cells expressing human GcgR, geometric mean, read-out: hGcgR cAMP Rel EC50 nM (SEM, n)
T1 construct: expressed in transfected cells; host or cells: HEK293
T1 sequence (P47871 26-477): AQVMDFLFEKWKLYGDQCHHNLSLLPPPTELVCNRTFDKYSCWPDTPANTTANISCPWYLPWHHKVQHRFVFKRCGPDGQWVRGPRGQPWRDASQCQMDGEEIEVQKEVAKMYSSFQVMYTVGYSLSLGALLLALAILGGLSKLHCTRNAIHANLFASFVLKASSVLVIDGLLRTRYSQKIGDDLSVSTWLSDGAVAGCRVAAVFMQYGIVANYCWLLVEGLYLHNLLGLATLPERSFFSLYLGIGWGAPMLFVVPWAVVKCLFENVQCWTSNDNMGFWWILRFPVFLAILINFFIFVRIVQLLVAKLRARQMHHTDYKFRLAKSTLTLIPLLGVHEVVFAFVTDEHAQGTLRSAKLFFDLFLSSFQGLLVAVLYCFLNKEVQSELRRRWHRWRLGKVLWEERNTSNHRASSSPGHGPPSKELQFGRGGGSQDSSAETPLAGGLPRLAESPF
Method: (§1) Each receptor over-expressing cell line (20 μl) is treated with the test peptide in DMEM (Gibco Cat #31053) supplemented with 0.1% Casein (Sigma Cat #C4765), 250 μM IBMX, 1× GlutaMAX™ (Gibco Cat #35050), and 20 mM HEPES (HyClone Cat #SH30237.01) in a 20 μl assay volume. After incubating for 60 minutes at room temperature, the resulting increase in intracellular CAMP is quantitatively determined using the CisBio CAMP Dynamic 2 HTRF Assay Kit (62AM4PEJ). The Lysis buffer containing cAMP-d2 conjugate (20 μl) and the antibody anti-cAMP-Eu3+-Cryptate (20 μl) are then added to determine the cAMP level. After incubating 60 minutes at room temperature, HTRF signal is detected with an Envision 2104 plate reader (PerkinElmer). Fluorescent emission at 620 nm and at 665 nm is measured and the ratio between 620 nm and at 665 nm is calculated and then are converted to nM cAMP per well using a cAMP standard curve. Dose response curves of compounds are plotted as the percentage of stimulation normalized to minimum (buffer only) and maximum (maximum concentration of each control ligand) values and analyzed using a four parameter non-linear regression fit with a variable slope (Genedata Screener 13). EC50 is the concentration of compound causing half-maximal simulation in a dose response curve. A relative EC50 value is derived by non-linear regression analysis using the percent maximal response vs, the concentration of peptide added, fitted to a four-parameter logistic equation.
(§2) Intracellular cAMP levels are determined by extrapolation using a standard curve. Dose response curves of compounds are plotted as the percentage of stimulation normalized to minimum (buffer only) and maximum (maximum concentration of each control ligand) values and analyzed using a four-parameter non-linear regression fit with a variable slope (Genedata Screener 13). EC50 is the concentration of compound causing half-maximal simulation in a dose response curve. Each relative EC50 value for the geometric mean calculation is determined from a curve fitting.
(§3) Concentration response curves of compounds are plotted as the percentage of stimulation normalized to minimum (buffer only) and maximum (maximum concentration of each control ligand) values and analyzed using a four-parameter non-linear regression fit with a variable slope (Genedata Screener 13). EC50 is the concentration of compound causing half-maximal simulation in a dose response curve. […] The standard error of the mean is reported:
(§4) [formula] • The log transform accounts for the EC50 values falling on a multiplicative, rather than an arithmetic scale.
(§5) For illustration, as shown by Example 1, the peptide is tested in 8 runs of the hGIPR CAMP assay. […] Accordingly, each Example will use the geometric mean of those values to normalize the Example assay runs.

[2] = target: T2, human GLP-1 receptor (GLP-1R) (Homo sapiens, UniProt P43220); assay: as above; format: cell-based; settings: HEK293 cells expressing human GLP-1R, geometric mean, read-out: hGLP1R cAMP Rel EC50 nM (SEM, n)
T2 construct: expressed in transfected cells; host or cells: HEK293
T2 sequence (P43220 24-463): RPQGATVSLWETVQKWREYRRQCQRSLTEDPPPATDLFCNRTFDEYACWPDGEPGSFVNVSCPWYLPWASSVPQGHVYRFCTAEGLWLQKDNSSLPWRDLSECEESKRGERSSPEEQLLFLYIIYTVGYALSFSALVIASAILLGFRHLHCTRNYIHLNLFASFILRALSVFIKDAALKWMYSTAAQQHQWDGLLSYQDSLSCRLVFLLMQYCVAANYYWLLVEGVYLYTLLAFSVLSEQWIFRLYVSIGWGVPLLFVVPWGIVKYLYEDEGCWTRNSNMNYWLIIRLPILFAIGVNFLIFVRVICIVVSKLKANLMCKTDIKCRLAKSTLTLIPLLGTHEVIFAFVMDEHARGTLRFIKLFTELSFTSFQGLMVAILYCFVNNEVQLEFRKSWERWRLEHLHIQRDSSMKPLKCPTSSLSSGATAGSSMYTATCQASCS
Method: as §1, §2, §3, §4, §5

[3] = target: T3, human glucose-dependent insulinotropic peptide receptor (GIPR) (Homo sapiens, UniProt P48546); assay: as above; format: cell-based; settings: HEK293 cells expressing human GIPR, geometric mean, read-out: hGIPR cAMP Rel EC50 nM (SEM, n)
T3 construct: expressed in transfected cells; host or cells: HEK293
T3 sequence (P48546 22-466): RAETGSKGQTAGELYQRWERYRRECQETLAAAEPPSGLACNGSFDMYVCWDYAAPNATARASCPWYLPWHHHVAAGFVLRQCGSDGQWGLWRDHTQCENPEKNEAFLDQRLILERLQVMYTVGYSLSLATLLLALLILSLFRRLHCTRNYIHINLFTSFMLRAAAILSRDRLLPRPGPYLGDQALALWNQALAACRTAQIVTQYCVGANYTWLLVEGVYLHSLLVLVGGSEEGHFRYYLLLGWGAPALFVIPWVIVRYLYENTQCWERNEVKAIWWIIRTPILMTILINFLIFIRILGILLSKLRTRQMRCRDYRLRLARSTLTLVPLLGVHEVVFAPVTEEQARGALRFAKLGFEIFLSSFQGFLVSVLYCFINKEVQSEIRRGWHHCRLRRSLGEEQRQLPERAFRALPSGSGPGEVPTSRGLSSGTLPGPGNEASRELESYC
Method: as §1, §2, §3, §4, §5

[4] = target: T4, human GIPR (Homo sapiens, UniProt P48546); assay: [125I]-GIP binding, SPA with WGA beads, 0.1% bacitracin; settings: geometric mean, read-out: hGIPR Ki
T4 construct: expressed in transfected cells; crude membranes
T4 sequence (P48546 22-466): T3 sequence (P48546 22-466)
Method: (§6) Stably transfected cell lines are prepared by subcloning receptor cDNA into a pcDNA3 expression plasmid and transfected into human embryonic kidney (HEK) 293 (hGcgR and hGLP-1R) or Chinese Hamster Ovary (CHO) (hGIPR) cells followed by selection with Geneticin (hGLP-1R and hGIPR) or hygromycin B (hGcgR).
(§7) Two methods are used for the preparation of crude cell membranes.
(§8) Method 1: Frozen cell pellets are lysed on ice in hypotonic buffer containing 50 mM Tris HCl, pH 7.5, and Roche Complete™ Protease Inhibitors with EDTA. The cell suspension is disrupted using a glass Potter-Elvehjem homogenizer fitted with a Teflon® pestle for 25 strokes. The homogenate is centrifuged at 4° C. at 1100× g for 10 minutes. The supernatant is collected and stored on ice while the pellets are resuspended in homogenization buffer and rehomogenized as described above. The homogenate is centrifuged at 1100× g for 10 minutes. The second supernatant is combined with the first supernatant and centrifuged at 35000× g for 1 hour at 4° C. The resulting membrane pellet is resuspended in homogenization buffer containing protease inhibitors at approximately 1 to 3 mg/mL, quick frozen in liquid nitrogen and stored as aliquots in a −80° C. freezer until use.
(§9) Method 2: Frozen cell pellets are lysed on ice in hypotonic buffer containing 50 mM Tris HCl, pH 7.5, 1 mM MgCl2, Roche Complete™ EDTA-free Protease Inhibitors and 25 units/mL DNAse I (Invitrogen). The cell suspension is disrupted using a glass Potter-Elvehjem homogenizer fitted with a Teflon® pestle for 20 to 25 strokes. The homogenate is centrifuged at 4° C. at 1800× g for 15 minutes. The supernatant is collected and stored on ice while the pellets are resuspended in homogenization buffer (without DNAse I) and rehomogenized as described above. The homogenate is centrifuged at 1800× g for 15 minutes. The second supernatant is combined with the first supernatant and centrifuged an additional time at 1800× g for 15 minutes. The overall supernatant is then centrifuged at 25000× g for 30 minutes at 4° C. The resulting membrane pellet is resuspended in homogenization buffer (without DNAse I) containing protease inhibitors at approximately 1 to 3 mg/mL and stored as aliquots in a −80° C. freezer until use.
The binding buffer contains 25 mM HEPES, pH 7.4, 2.5 mM CaCl2), 1 mM MgCl2, 0.1% (w/v) bacitracin, 0.003% (w/v) TWEEN®-20, and Roche Complete™ Protease Inhibitors without EDTA. […] Plates are sealed and mixed on a plate shaker (setting 6) for 1 minute and read with a PerkinElmer Trilux MicroBeta® scintillation counter after 2.5 to 12 hours of incubation/settling time at room temperature.
(§10) Data are analyzed using four-parameter (curve maximum, curve minimum, IC50, Hill slope) nonlinear regression routines (Genedata Screener, version 12.0.4, Genedata AG, Basal, Switzerland). […] Values for Ki are reported as the geometric mean, with error expressed as the standard error of the mean (SEM) and n is equal to the number of independent replicates (determined in assays performed on different days). […] SEM is only calculated when […] or greater. Means are expressed as geometric means with the standard error of the mean (SEM) and the number of replicates (n) indicated in parentheses.

[5] = target: T5, human GLP-1R (Homo sapiens, UniProt P43220); assay: [125I]-GLP-1 binding, SPA with WGA beads, 0.1% bacitracin; settings: geometric mean, read-out: hGLP1R Ki
T5 construct: expressed in transfected cells; crude membranes
T5 sequence (P43220 24-463): as the sequence (P43220 24-463) above
Method: as §6, §7, §8, §9
The binding buffer contains 25 mM HEPES, pH 7.4, 2.5 mM CaCl2), 1 mM MgCl2, 0.1% (w/v) bacitracin, 0.003% (w/v) TWEEN®-20, and Roche Complete™ Protease Inhibitors without EDTA.
as §10

[6] = test system: CD4+ T cells (CD8+ T cell-depleted PBMCs); assay: CD4+ T cell proliferation assay (immunogenicity assessment); format: cell-based, human; settings: 0.33 μM, 7 days
Method: Protein therapeutics that induce less than 30% positive response in the CD4+ T cell proliferation assay are associated with a low risk of immunogenicity. Briefly, to assess the propensity for a clinical immunogenic response to the compounds of Examples 1, 2, 3, 5, and 6, CD8+ T cell-depleted peripheral blood mononuclear cells (PBMCs) are prepared and labeled with carboxyfluorescein diacetate succinimidyl ester (CFSE; Invitrogen) from a cohort of 10 healthy donors with diverse human leukocyte antigen (HLA) class II haplotypes. Each donor is tested in triplicate with 2.0 mL media control, keyhole limpet hemocyanin (KLH: 0.33 μM), and the compounds of Examples 1, 2, 3, 5, and 6 (0.33 μM). Cultures are incubated for 7 days at 37° C. with 5% CO2. On day 7, samples are analyzed by flow cytometry using a BD LSR II Fortessa (Becton Dickinson; Franklin Lakes, NJ), equipped with a high throughput sampler (HTS). Data is analyzed using FlowJo® Software (FlowJo, LLC/TreeStar; Ashland, OR).
• Cell Division Index (“CDI”): proportion of divided CD4+ T cells to the total number of CD4+ T cells in stimulated versus unstimulated samples.

CC[C@H](C)[C@H](NC(=O)[C@H](Cc1ccccc1)NC(=O)[C@@H](NC(=O)CNC(=O)[C@H](CCC(=O)O)NC(=O)C(C)(C)NC(=O)[C@@H](N)Cc1ccc(O)cc1)[C@@H](C)O)C(=O)N[C@@H](CO)C(=O)N[C@@H](CC(=O)O)C(=O)N[C@@H](Cc1ccc(O)cc1)C(=O)N[C@@H](CO)C(=O)N[C@H](C(=O)N[C@@](C)(CC(C)C)C(=O)N[C@@H](CC(C)C)C(=O)N[C@@H](CC(=O)O)C(=O)N[C@@H](CCCCN)C(=O)N[C@@H](CCCCNC(=O)COCCOCCNC(=O)COCCOCCNC(=O)CC[C@H](NC(=O)CCCCCCCCCCCCCCCCCCC(=O)O)C(=O)O)C(=O)N[C@@H](Cc1c[nH]cn1)C(=O)N[C@@H](CCC(N)=O)C(=O)NC(C)(C)C(=O)N[C@@H](CC(=O)O)C(=O)N[C@@H](Cc1ccccc1)C(=O)N[C@H](C(=O)N[C@@H](CCC(=O)O)C(=O)N[C@@H](Cc1ccc(O)cc1)C(=O)N[C@@H](CC(C)C)C(=O)N[C@@H](CC(C)C)C(=O)N[C@@H](CCC(=O)O)C(=O)N[C@@H](CCC(N)=O)C(=O)NCC(=O)N1CCC[C@H]1C(=O)N[C@@H](CO)C(=O)N[C@@H](CO)C(=O)NCC(=O)N[C@@H](C)C(=O)N1CCC[C@H]1C(=O)N1CCC[C@H]1C(=O)N1CCC[C@H]1C(=O)N[C@@H](CO)C(N)=O)C(C)C)[C@@H](C)CC [Example 67] (H-Y[Aib]EGTFISDYSI[αMeL]LDKK([AEEA-AEEA-γGlu-C20 diacid])HQ[Aib]DFVEYLLEQGPSSGAPPPS-NH2)
EC50 [1]: > 5000 nM | EC50 [2]: > 5000 nM | EC50 [3]: 0.0627 nM

CC[C@H](C)[C@H](NC(=O)[C@H](CCCCN)NC(=O)[C@H](CC(=O)O)NC(=O)[C@H](CC(C)C)NC(=O)[C@](C)(CC(C)C)NC(=O)[C@@H](NC(=O)[C@H](CO)NC(=O)[C@H](Cc1ccc(O)cc1)NC(=O)[C@H](CC(=O)O)NC(=O)[C@H](CO)NC(=O)[C@@H](NC(=O)[C@H](Cc1ccccc1)NC(=O)[C@@H](NC(=O)CNC(=O)[C@H](CCC(=O)O)NC(=O)C(C)(C)NC(=O)[C@@H](N)Cc1ccc(O)cc1)[C@@H](C)O)[C@@H](C)CC)[C@@H](C)CC)C(=O)N[C@@H](CCCNC(=N)N)C(=O)N[C@@H](CCC(N)=O)C(=O)NC(C)(C)C(=O)N[C@@H](CC(=O)O)C(=O)N[C@@H](Cc1ccccc1)C(=O)N[C@H](C(=O)N[C@@H](CCC(=O)O)C(=O)N[C@@H](Cc1ccc(O)cc1)C(=O)N[C@@H](CCCCNC(=O)COCCOCCNC(=O)COCCOCCNC(=O)CC[C@H](NC(=O)CCCCCCCCCCCCCCCCCCC(=O)O)C(=O)O)C(=O)N[C@@H](CC(C)C)C(=O)N[C@@H](CCC(=O)O)C(=O)N[C@@H](C)C(=O)NCC(=O)N1CCC[C@H]1C(=O)N[C@@H](CO)C(=O)N[C@@H](CO)C(=O)NCC(=O)N[C@@H](C)C(=O)N1CCC[C@H]1C(=O)N1CCC[C@H]1C(=O)N1CCC[C@H]1C(=O)N[C@@H](CO)C(N)=O)C(C)C [Example 118] (H-Y[Aib]EGTFISDYSI[αMeL]LDKIRQ[Aib]DFVEYK([AEEA-AEEA-γGlu-C20 diacid])LEAGPSSGAPPPS-NH2)
Ki [4]: 0.0696 nM | Ki [5]: > 920 nM | EC50 [1]: > 5000 nM | EC50 [2]: > 5000 nM | EC50 [3]: 0.0611 nM

keyhole limpet hemocyanin [KLH, reference compound]
% Donor Response (n = 10) ([6]; 10 healthy donors, positive response CDI>2.5): 100% | Median Response Strength in positive donors (CDI) ([6]; Cell Division Index): 164.285 (n = 10)
